From patent US20260146035A1, “FUSED BICYCLIC COMPOUNDS AND THEIR USE AS MER AND AXL INHIBITORS” (DONG-A ST CO., LTD., priority 2022, published 2026)

Tests used:
human TYRO3 (455-end) = target: T1, human TYRO3 (455-end) (Homo sapiens, UniProt Q06418); assay: HTRF kinase activity biochemical assay, TYRO3; details: 10 μM ATP, 30 minutes pre-incubation; read-out: HTRF TYRO IC50
T1 construct: TYRO3 (455-end); purchased SignalChem, Canada
T1 sequence (Q06418 455-890 limits assumed): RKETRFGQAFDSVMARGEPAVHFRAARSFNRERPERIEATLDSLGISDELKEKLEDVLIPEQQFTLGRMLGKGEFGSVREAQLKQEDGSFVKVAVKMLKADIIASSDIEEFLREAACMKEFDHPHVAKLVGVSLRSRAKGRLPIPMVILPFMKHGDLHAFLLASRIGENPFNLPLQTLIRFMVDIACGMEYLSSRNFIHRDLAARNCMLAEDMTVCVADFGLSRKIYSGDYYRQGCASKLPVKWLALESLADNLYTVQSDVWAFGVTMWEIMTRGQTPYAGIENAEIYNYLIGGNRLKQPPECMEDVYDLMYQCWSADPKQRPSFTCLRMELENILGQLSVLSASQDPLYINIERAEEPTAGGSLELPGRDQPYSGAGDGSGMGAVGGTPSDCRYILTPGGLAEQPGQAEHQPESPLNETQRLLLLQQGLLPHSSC

human MER (528-end) = target: T2, human MER (528-end) (Homo sapiens, UniProt Q12866); assay: HTRF kinase activity biochemical assay, MER; details: 10 μM ATP, 30 minutes pre-incubation; read-out: HTRF MERTK IC50
T2 construct: human MER (528-end); purchased Camnabio, Japan
T2 sequence (Q12866 528-999 limits assumed): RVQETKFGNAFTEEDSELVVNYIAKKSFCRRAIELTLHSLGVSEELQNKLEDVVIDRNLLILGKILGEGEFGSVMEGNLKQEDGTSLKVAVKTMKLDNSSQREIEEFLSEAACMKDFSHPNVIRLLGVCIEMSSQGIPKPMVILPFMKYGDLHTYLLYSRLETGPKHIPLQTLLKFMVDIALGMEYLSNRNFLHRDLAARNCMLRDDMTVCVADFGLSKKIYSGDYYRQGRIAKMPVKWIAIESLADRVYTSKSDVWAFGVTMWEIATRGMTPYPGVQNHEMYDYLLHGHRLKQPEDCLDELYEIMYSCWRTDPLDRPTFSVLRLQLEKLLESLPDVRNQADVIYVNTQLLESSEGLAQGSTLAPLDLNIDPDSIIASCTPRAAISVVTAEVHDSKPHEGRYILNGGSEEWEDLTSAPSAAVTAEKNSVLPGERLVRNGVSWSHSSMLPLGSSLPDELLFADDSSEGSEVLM

human AXL (473-end) = target: T3, human AXL (473-end) (Homo sapiens, UniProt P30530); assay: HTRF kinase activity biochemical assay, AXL; details: 10 μM ATP, 30 minutes pre-incubation
T3 construct: human AXL (473-end); purchased SignalChem, Canada
T3 sequence (P30530 473-894 limits assumed): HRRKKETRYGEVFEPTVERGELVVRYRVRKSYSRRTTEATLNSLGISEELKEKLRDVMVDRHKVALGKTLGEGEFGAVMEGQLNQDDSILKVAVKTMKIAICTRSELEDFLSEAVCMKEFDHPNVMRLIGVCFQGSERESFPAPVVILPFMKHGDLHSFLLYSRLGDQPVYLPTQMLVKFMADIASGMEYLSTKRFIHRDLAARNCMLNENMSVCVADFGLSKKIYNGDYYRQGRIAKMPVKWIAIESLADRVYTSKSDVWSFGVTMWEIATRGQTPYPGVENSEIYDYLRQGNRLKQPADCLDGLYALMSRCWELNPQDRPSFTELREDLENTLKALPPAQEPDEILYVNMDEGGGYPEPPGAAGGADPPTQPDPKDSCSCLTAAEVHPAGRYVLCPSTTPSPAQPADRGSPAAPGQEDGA

Structure (SMILES) | IC50 (human TYRO3 (455-end)) [nM] | IC50 (human MER (528-end)) [nM] | IC50 (human AXL (473-end)) [nM]
Cn1cc(-c2cnc(N)c(C(=O)N[C@H]3CCC[C@@H]3OCc3ccc(-c4ccc5c(c4)CC[C@H]5N4CCN(CC(O)CO)CC4)cc3)c2)cn1 (stereo partly drawn) [Example 101, 2-amino-N-{(1S,2S)-2-[(4-{(1R)-1-[4-(2,3-dihydroxypropyl)piperazin-1-yl]-2,3-dihydro-1H-inden-5-yl}phenyl)methoxy]cyclopentyl}-5-(1-methyl-1H-pyrazol-4-yl)pyridine-3-carboxamide] | > 1000 | 10 to 100 | 10 to 100
CN(C)CCC(=O)N1Cc2ccc(-c3ccc(CO[C@H]4CCC[C@@H]4NC(=O)c4cc(-c5cnn(C)c5)cnc4N)cc3)cc2C1 [Example 1, 2-amino-N-{(1S,2S)-2-[(4-{2-[3-(dimethylamino)propanoyl]-2,3-dihydro-1H-isoindol-5-yl}phenyl)methoxy]cyclopentyl}-5-(1-methyl-1H-pyrazol-4-yl)pyridine-3-carboxamide] | > 1000 | 100 to 1000 | > 1000
Cn1cc(-c2cnc(N)c(C(=O)N[C@H]3CCC[C@@H]3OCc3ccc(-c4ccc5c(ccn5C5CCN(C(=O)OC(C)(C)C)CC5)c4)cc3)c2)cn1 [Example 4, tert-butyl 4-{5-[4-({[(1S,2S)-2-{[2-amino-5-(1-methyl-1H-pyrazol-4-yl)pyridine-3-carbonyl]amino}cyclopentyl]oxy}methyl)phenyl]-1H-indol-1-yl}piperidine-1-carboxylate] | > 1000 | > 1000 | 100 to 1000
Cn1cc(-c2cnc(N)c(C(=O)N[C@H]3CCC[C@@H]3OCc3ccc(-c4ccc5c(n4)C(C)(C)CN5C4CCN(CCO)CC4)cc3)c2)cn1 [Example 113, 2-amino-N-{(1S,2S)-2-[(4-{1-[1-(2-hydroxyethyl)piperidin-4-yl]-3,3-dimethyl-2,3-dihydro-1H-pyrrolo[3,2-b]pyridin-5-yl}phenyl)methoxy]cyclopentyl}-5-(1-methyl-1H-pyrazol-4-yl)pyridine-3-carboxamide] | 100 to 1000 | < 10 | 10 to 100
Cn1cc(-c2cnc(N)c(C(=O)N[C@H]3CCC[C@@H]3OCc3ccc(-c4ccc5c(C6CCN(CCO)CC6)cn(C)c5c4)cc3)c2)cn1 [Example 26, 2-amino-N-{(1S,2S)-2-[(4-{3-[1-(2-hydroxyethyl)piperidin-4-yl]-1-methyl-1H-indol-6-yl}phenyl)methoxy]cyclopentyl}-5-(1-methyl-1H-pyrazol-4-yl)pyridine-3-carboxamide] | > 1000 | < 10 | 10 to 100
Cn1cc(-c2cnc(N)c(C(=O)N[C@H]3CCC[C@@H]3OCc3ccc(-c4ccc5c(c4)CC(F)(F)C5N4CCN(CC(O)CO)CC4)cc3)c2)cn1 (mixture of isomers) [Example 59, 2-amino-N-{(1S,2S)-2-[(4-{1-[4-(2,3-dihydroxypropyl)piperazin-1-yl]-2,2-difluoro-2,3-dihydro-1H-inden-5-yl}phenyl)methoxy]cyclopentyl}-5-(1-methyl-1H-pyrazol-4-yl)pyridine-3-carboxamide] | 100 to 1000 | < 10 | < 10
Nc1ncc(C(F)(F)F)cc1C(=O)N[C@H]1CCC[C@@H]1OCc1ccc(-c2ccc3c(c2)OCCC3N2CCN(CCO)CC2)cc1 (stereo partly drawn) [Example 133, 2-amino-N-{(1S,2S)-2-[(4-{4-[4-(2-hydroxyethyl)piperazin-1-yl]-3,4-dihydro-2H-1-benzopyran-7-yl}phenyl)methoxy]cyclopentyl}-5-(trifluoromethyl)pyridine-3-carboxamide] | > 1000 | < 10 | < 10
Cn1cc(-c2cnc(N)c(C(=O)N[C@H]3CCC[C@@H]3OCc3ccc(-c4ccc5c(ccn5C5CCN(CCO)CC5)c4)cc3)c2)cn1 [Example 7, 2-amino-N-{(1S,2S)-2-[(4-{1-[1-(2-hydroxyethyl)piperidin-4-yl]-1H-indol-5-yl}phenyl)methoxy]cyclopentyl}-5-(1-methyl-1H-pyrazol-4-yl)pyridine-3-carboxamide] | 100 to 1000 | < 10 | < 10
Nc1ncc(C(F)(F)F)cc1C(=O)N[C@H]1CCC[C@@H]1OCc1ccc(-c2ccc3c(c2)CCCC3N2CCN(CCO)CC2)cc1 (stereo partly drawn) [Example 124, 2-amino-N-{(1S,2S)-2-[(4-{5-[4-(2-hydroxyethyl)piperazin-1-yl]-5,6,7,8-tetrahydronaphthalen-2-yl}phenyl)methoxy]cyclopentyl}-5-(trifluoromethyl)pyridine-3-carboxamide] | 100 to 1000 | < 10 | < 10

The remaining lines, values ahead:

IC50 (human TYRO3 (455-end)) [nM] | IC50 (human MER (528-end)) [nM] | IC50 (human AXL (473-end)) [nM] | Structure (SMILES)
100 to 1000 | < 10 | < 10 | Cn1cc(-c2cnc(N)c(C(=O)N[C@H]3CCC[C@@H]3OCc3ccc(-c4ccc5c(ccn5CCN)c4)cc3)c2)cn1 [Example 67, 2-amino-N-[(1S,2S)-2-({4-[1-(2-aminoethyl)-1H-indol-5-yl]phenyl}methoxy)cyclopentyl]-5-(1-methyl-1H-pyrazol-4-yl)pyridine-3-carboxamide]
100 to 1000 | < 10 | 10 to 100 | CC1(C)CN(C2CCN(CCO)CC2)c2ccc(-c3ccc(CO[C@H]4CCC[C@@H]4NC(=O)c4nc(-c5ccc(F)nc5)cnc4N)cc3)cc21 [Example 41, 3-amino-6-(6-fluoropyridin-3-yl)-N-{(1S,2S)-2-[(4-{1-[1-(2-hydroxyethyl)piperidin-4-yl]-3,3-dimethyl-2,3-dihydro-1H-indol-5-yl}phenyl)methoxy]cyclopentyl}pyrazine-2-carboxamide]
< 10 | < 10 | < 10 | C=C(C)c1cnc(N)c(C(=O)N[C@H]2CCC[C@@H]2OCc2ccc(-c3ccc4c(c3)C(C)(C)CN4C3CCN(CCO)CC3)cc2)c1 [Example 51, 2-amino-N-{(1S,2S)-2-[(4-{1-[1-(2-hydroxyethyl)piperidin-4-yl]-3,3-dimethyl-2,3-dihydro-1H-indol-5-yl}phenyl)methoxy]cyclopentyl}-5-(prop-1-en-2-yl)pyridine-3-carboxamide]
10 to 100 | < 10 | < 10 | Nc1ncc(-c2ccccn2)cc1C(=O)N[C@H]1CCC[C@@H]1OCc1ccc(-c2ccc3c(c2)CC[C@@H]3N2CCN(CCO)CC2)cc1 [Example 177, 6′-amino-N-{(1S,2S)-2-[(4-{(1S)-1-[4-(2-hydroxyethyl)piperazin-1-yl]-2,3-dihydro-1H-inden-5-yl}phenyl)methoxy]cyclopentyl}[2,3′-bipyridine]-5′-carboxamide]
10 to 100 | < 10 | < 10 | Nc1ncc(-c2cccnc2F)cc1C(=O)N[C@H]1CCC[C@@H]1OCc1ccc(-c2ccc3c(c2)CCCC3N2CCN(CCO)CC2)cc1 (stereo partly drawn) [Example 149, 6-amino-2′-fluoro-N-{(1S,2S)-2-[(4-{5-[4-(2-hydroxyethyl)piperazin-1-yl]-5,6,7,8-tetrahydronaphthalen-2-yl}phenyl)methoxy]cyclopentyl}[3,3′-bipyridine]-5-carboxamide]
10 to 100 | < 10 | < 10 | Cn1cc(-c2cnc(N)c(C(=O)N[C@H]3CCC[C@@H]3OCc3ccc(-c4cnc5c(c4)C(C)(C)CCN5C4CCN(CCO)CC4)cc3)c2)cn1 [Example 158, 2-amino-N-{(1S,2S)-2-[(4-{8-[1-(2-hydroxyethyl)piperidin-4-yl]-5,5-dimethyl-5,6,7,8-tetrahydro-1,8-naphthyridin-3-yl}phenyl)methoxy]cyclopentyl}-5-(1-methyl-1H-pyrazol-4-yl)pyridine-3-carboxamide]
10 to 100 | < 10 | < 10 | CN1CCN([C@H]2CC(C)(C)c3cc(-c4ccc(CO[C@H]5CCC[C@@H]5NC(=O)c5cc(-c6cccnc6F)cnc5N)cc4)ccc32)CC1 [Example 150, 6-amino-N-[(1S,2S)-2-({4-[(1S)-3,3-dimethyl-1-(4-methylpiperazin-1-yl)-2,3-dihydro-1H-inden-5-yl]phenyl}methoxy)cyclopentyl]-2′-fluoro[3,3′-bipyridine]-5-carboxamide]
